What all share (format): cell-based, Acinetobacter baumannii
One assay relates to A. baumannii strain AB2. Put plainly: MIC by broth micro-dilution, clinical strain AB2. The settings on record: for MIC: Acinetobacter baumannii, read-out: susceptibilities to antibiotics (MICs); for MIC, ginger compound only: strain AB2, 10^5 cfu/mL, no tetracycline. The text has this:
(§1) Precisely, five strains of clinical A. baumannii, named AB1, AB2, AB4, AB5, AB6, are isolated from patients in Kaohsiung Medical University Hospital, 1600-bed tertiary referral medical center in Taiwan, wherein each of strains is from different clones by genotyping and collected from different samples, for example, sputum, wound pus, blood, pleural fluid, and bronchial washing. All of the five strains of A. baumannii are stored in trypticase soy broth (Difco Laboratories, Detroit, Mich.) with 20% glycerol at −80° C. until the following use.
(§2) Some of the antibiotics including ampicillin, cefazolin and cefmetazole have no MIC breakpoints according to CLSI.
(§3) In the present embodiment, 10^5 cfu/mL of each strain of A. baumannii are prepared, and the medication test of the present invention is carried out by respectively providing the medication of the present invention and the ginger compound only to each strain of A. baumannii. In this way, the antimicrobial activities of the medication of the present invention and of the ginger compound only are monitored and recorded respectively.

The subject of another assay is A. baumannii strain AB1. The assay can be described thus: MIC by broth micro-dilution, clinical strain AB1. The settings on record: for MIC: Acinetobacter baumannii, read-out: susceptibilities to antibiotics (MICs); for MIC, ginger compound only: strain AB1, 10^5 cfu/mL, no tetracycline.
Description: as §1, §2, §3

The test system of another assay is A. baumannii strain AB6. The assay can be described thus: MIC by broth micro-dilution, clinical strain AB6. The settings on record: for MIC: Acinetobacter baumannii, read-out: susceptibilities to antibiotics (MICs); for MIC, ginger compound only: strain AB6, 10^5 cfu/mL, no tetracycline.
Description: as §1, §2, §3

In the next assay the test system is A. baumannii strain AB4. The assay can be described thus: MIC by broth micro-dilution, clinical strain AB4. The settings on record: for MIC: Acinetobacter baumannii, read-out: susceptibilities to antibiotics (MICs); for MIC, ginger compound only: strain AB4, 10^5 cfu/mL, no tetracycline.
Description: as §1, §2, §3

The subject of another assay is A. baumannii strain AB5. The assay can be described thus: MIC by broth micro-dilution, clinical strain AB5. The settings on record: for MIC: Acinetobacter baumannii, read-out: susceptibilities to antibiotics (MICs); for MIC, ginger compound only: strain AB5, 10^5 cfu/mL, no tetracycline.
Description: as §1, §2, §3

≈ marks a conversion by molar mass, not a printed value.

Take `CO/N=C(\C(=O)N[C@@H]1C(=O)N2C(C(=O)O)=C(CSc3nc(=O)c(=O)[nH]n3C)CS[C@H]12)c1csc(N)n1` [Ceftriaxone]: the MIC with A. baumannii strain AB2 (strain AB2, LB broth) was at least 64 mg/L; in the assay with A. baumannii strain AB1 (strain AB1, LB broth), at least 64 mg/L; in the assay on A. baumannii strain AB6 (strain AB6, LB broth) it was at least 64 mg/L; in the assay on A. baumannii strain AB4 (strain AB4, LB broth) it was at least 64 mg/L; with A. baumannii strain AB5 (strain AB5, LB broth), at least 64 mg/L.

For `CCCCCCCCC[C@H](O)CC(=O)CCc1ccc(O)c(OC)c1` [[10]-gingerol], the “MIC, ginger compound only” value against A. baumannii strain AB2 turned out to be 162.3 µM (≈ 56.9 µg/mL); against A. baumannii strain AB1, 144.6 µM (≈ 50.7 µg/mL); in the assay with A. baumannii strain AB6, 198.1 µM (≈ 69.4 µg/mL); in the assay on A. baumannii strain AB4, 196.0 µM (≈ 68.7 µg/mL); against A. baumannii strain AB5, 207.5 µM (≈ 72.7 µg/mL).

For the compound `CCCCC[C@H](O)CC(=O)CCc1ccc(O)c(OC)c1` [[6]-gingerol], the “MIC, ginger compound only” value in the assay on A. baumannii strain AB2 was determined as 226.8 µM (≈ 66.8 µg/mL); against A. baumannii strain AB1, 226.4 µM (≈ 66.7 µg/mL); in the assay with A. baumannii strain AB6, 275.6 µM (≈ 81.1 µg/mL); against A. baumannii strain AB4, 297.1 µM (≈ 87.5 µg/mL); in the assay with A. baumannii strain AB5 it was 277.3 µM (≈ 81.6 µg/mL).

For the compound `CO[C@@]1(NC(=O)CSCC#N)C(=O)N2C(C(=O)O)=C(CSc3nnnn3C)CS[C@@H]21` [Cefmetazole], the MIC in the assay with A. baumannii strain AB2 (strain AB2, LB broth) is at least 64 mg/L; with A. baumannii strain AB1 (strain AB1, LB broth) it was at least 64 mg/L; with A. baumannii strain AB6 (strain AB6, LB broth), at least 64 mg/L; with A. baumannii strain AB4 (strain AB4, LB broth), at least 64 mg/L; in the assay on A. baumannii strain AB5 (strain AB5, LB broth), at least 64 mg/L.

As for `CCCCCC(=O)CC(=O)/C=C/c1ccc(O)c(OC)c1` [[6]-dehydrogingerdione], the “MIC, ginger compound only” value in the assay on A. baumannii strain AB2 was found to be 166.2 µM (≈ 48.3 µg/mL); with A. baumannii strain AB1, 198.1 µM (≈ 57.5 µg/mL); against A. baumannii strain AB6, 207.1 µM (≈ 60.1 µg/mL); against A. baumannii strain AB4, 137.6 µM (≈ 40 µg/mL); with A. baumannii strain AB5 it was 178.5 µM (≈ 51.8 µg/mL).

As for Gentamicin, the “susceptibilities to antibiotics (MICs)” value is given as “≧16 μg/ml” with A. baumannii strain AB2 (strain AB2, LB broth); “≧16 μg/ml” in the assay with A. baumannii strain AB1 (strain AB1, LB broth); “≧16 μg/ml” in the assay on A. baumannii strain AB6 (strain AB6, LB broth); “≧16 μg/ml” in the assay on A. baumannii strain AB4 (strain AB4, LB broth); “≧16 μg/ml” in the assay on A. baumannii strain AB5 (strain AB5, LB broth).

For `Cc1nnc(SCC2=C(C(=O)O)N3C(=O)[C@@H](NC(=O)Cn4cnnn4)[C@H]3SC2)s1` [Cefazolin], the MIC with A. baumannii strain AB2 (strain AB2, LB broth) is at least 64 mg/L; in the assay with A. baumannii strain AB1 (strain AB1, LB broth), at least 64 mg/L; with A. baumannii strain AB6 (strain AB6, LB broth) it was at least 64 mg/L; in the assay on A. baumannii strain AB4 (strain AB4, LB broth), at least 64 mg/L; in the assay on A. baumannii strain AB5 (strain AB5, LB broth) it was at least 64 mg/L.

As for `CCCCC/C=C/C(=O)CCc1ccc(O)c(OC)c1` [[6]-shogaol], the “MIC, ginger compound only” value against A. baumannii strain AB2 is 274.0 µM (≈ 75.7 µg/mL); in the assay on A. baumannii strain AB1, 208.1 µM (≈ 57.5 µg/mL); with A. baumannii strain AB6 it was 347.2 µM (≈ 96 µg/mL); in the assay with A. baumannii strain AB4 it was 279.7 µM (≈ 77.3 µg/mL); with A. baumannii strain AB5, 261.3 µM (≈ 72.2 µg/mL).

Take `CO/N=C(\C(=O)N[C@@H]1C(=O)N2C(C(=O)[O-])=C(C[N+]3(C)CCCC3)CS[C@H]12)c1csc(N)n1` [Cefepime]: the MIC in the assay with A. baumannii strain AB2 (strain AB2, LB broth) is at least 64 mg/L; in the assay with A. baumannii strain AB1 (strain AB1, LB broth) it was at least 64 mg/L; in the assay with A. baumannii strain AB6 (strain AB6, LB broth) it was at least 64 mg/L; in the assay on A. baumannii strain AB4 (strain AB4, LB broth) it was at least 64 mg/L; in the assay on A. baumannii strain AB5 (strain AB5, LB broth), at least 64 mg/L.

On to `CC1(C)S[C@@H]2[C@H](NC(=O)[C@H](N)c3ccccc3)C(=O)N2[C@H]1C(=O)O` [Ampicillin], for which the MIC in the assay with A. baumannii strain AB2 (strain AB2, LB broth) was at least 512 mg/L; in the assay on A. baumannii strain AB1 (strain AB1, LB broth), at least 512 mg/L; in the assay with A. baumannii strain AB6 (strain AB6, LB broth) it was at least 512 mg/L; in the assay with A. baumannii strain AB4 (strain AB4, LB broth) it was at least 512 mg/L; in the assay on A. baumannii strain AB5 (strain AB5, LB broth) it was at least 512 mg/L.

In the case of `C[C@@H](O)[C@H]1C(=O)N2C(C(=O)O)=C(S[C@@H]3CN[C@H](C(=O)N(C)C)C3)[C@H](C)[C@H]12` [Meropenem], the MIC is at least 16 mg/L with A. baumannii strain AB2 (strain AB2, LB broth); at least 16 mg/L in the assay with A. baumannii strain AB1 (strain AB1, LB broth); at least 16 mg/L in the assay on A. baumannii strain AB6 (strain AB6, LB broth); at least 16 mg/L in the assay on A. baumannii strain AB4 (strain AB4, LB broth); at least 16 mg/L in the assay with A. baumannii strain AB5 (strain AB5, LB broth).

As to `CC(C)(O/N=C(\C(=O)N[C@@H]1C(=O)N2C(C(=O)[O-])=C(C[n+]3ccccc3)CS[C@H]12)c1csc(N)n1)C(=O)O` [Ceftazidime], the MIC with A. baumannii strain AB2 (strain AB2, LB broth) is at least 64 mg/L; in the assay on A. baumannii strain AB1 (strain AB1, LB broth), at least 64 mg/L; with A. baumannii strain AB6 (strain AB6, LB broth) it was at least 64 mg/L; in the assay on A. baumannii strain AB4 (strain AB4, LB broth) it was at least 64 mg/L; with A. baumannii strain AB5 (strain AB5, LB broth), at least 64 mg/L.

On to `CN(C)[C@@H]1C(O)=C(C(N)=O)C(=O)[C@@]2(O)C(O)=C3C(=O)c4c(O)cccc4[C@@](C)(O)[C@H]3C[C@@H]12` [Tetracycline], for which the MIC in the assay on A. baumannii strain AB2 (strain AB2, LB broth) is at least 512 mg/L; in the assay on A. baumannii strain AB1 (strain AB1, LB broth), 32 mg/L (≈ 72 µM); in the assay on A. baumannii strain AB6 (strain AB6, LB broth), at least 512 mg/L; in the assay with A. baumannii strain AB4 (strain AB4, LB broth), at least 512 mg/L; with A. baumannii strain AB5 (strain AB5, LB broth) it was at least 512 mg/L.

Regarding `CCN1CCN(C(=O)N[C@@H](C(=O)N[C@@H]2C(=O)N3[C@@H]2SC(C)(C)[C@@H]3C(=O)O)c2ccccc2)C(=O)C1=O` [Piperacillin], the MIC was at least 128 mg/L in the assay on A. baumannii strain AB2 (strain AB2, LB broth); at least 128 mg/L with A. baumannii strain AB1 (strain AB1, LB broth); at least 128 mg/L with A. baumannii strain AB6 (strain AB6, LB broth); at least 128 mg/L in the assay with A. baumannii strain AB4 (strain AB4, LB broth); at least 128 mg/L in the assay on A. baumannii strain AB5 (strain AB5, LB broth).
